This experiment has as its system IFNα-induced STAT phosphorylation (pSTAT5) in human whole blood. As to the kind of experiment: IFNα-Induced STAT Phosphorylation in Human Whole Blood. Type of experiment: cell-based. The conditions noted are these: 1 h incubation with compound, 1000 U/mL recombinant human IFNα A/D for 15 min, pSTAT5 in CD3 positive population, read-out: IFNα-Induced Stat Phosph. (IC50). Here is the method: IFNα-Induced STAT Phosphorylation in Human Whole Blood
After an hour long incubation with compound, human whole blood (drawn with either EDTA or ACD-A as anti-coagulant) was stimulated with 1000 U/mL recombinant human IFNα A/D (R&D Systems 11200-2) for 15 min. The stimulation was stopped by adding Fix/Lyse buffer (BD 558049). Cells were stained with a CD3 FITC antibody (BD 555916), washed, and permeabilized on ice using Perm III buffer (BD 558050). Cells were then stained with an Alexa-Fluor 647 pSTAT5 (pY694) antibody (BD 612599) for 30 min prior to analysis on the FACS Canto II. The amount of pSTAT5 expression was quantitated by median fluorescence intensity after gating on the CD3 positive population.

Drawing on patent US12365667B2, “Sulfone pyridine alkyl amide-substituted heteroaryl compounds” (BRISTOL-MYERS SQUIBB COMPANY, priority 2017, dated 2025), this text covers IC50 for 56 compounds.

The structures appear in SMILES notation. Read-outs that look alike come from different tables or passages of the source.

As a reminder, the IC50 is the point on the concentration scale where inhibition reaches its midpoint. Turning to `[2H]C([2H])([2H])NC(=O)c1nnc(Nc2ccc(F)cn2)cc1Nc1ncccc1S(C)(=O)=O` [Example 1, 6-((5-fluoropyridin-2-yl)amino)-N-(methyl-d3)-4-((3-(methylsulfonyl)pyridin-2-yl)amino)pyridazine-3-carboxamide], the IC50 (Homo sapiens) amounted to 0.012 µM.
`CNC(=O)c1nnc(Nc2cc(COC)ccn2)cc1Nc1ncccc1S(C)(=O)=O` [Example 96]: the IC50 turned out to be 0.004 µM.
Still for that read-out and setting: the result for `CCOc1ccc(Nc2cc(Nc3ncccc3S(C)(=O)=O)c(C(=O)NC)nn2)nn1` [Example 83] reads 0.076 µM; that for `CNC(=O)c1nnc(NC(=O)CC(C)(C)C)cc1Nc1ncccc1S(C)(=O)=O` [Example 139], 0.893 µM.
With `[2H]C([2H])([2H])NC(=O)c1nnc(NC(=O)[C@H]2C[C@@H]2C(F)(F)F)cc1Nc1ncccc1S(C)(=O)=O` [Example 175, N-(methyl-d3)-4-((3-(methylsulfonyl)pyridin-2-yl)amino)-6-((1S,2S)-2-(trifluoromethyl)cyclopropane-1-carboxamido)pyridazine-3-carboxamide], the IC50 (Homo sapiens) amounted to 0.278 µM.
For `CCCCC(=O)Nc1cc(Nc2ncccc2S(C)(=O)=O)c(C(=O)NC)nn1` [Example 119], the IC50 is 0.073 µM.
In the case of `CNC(=O)c1nnc(Nc2ccc(-c3c(F)cccc3F)nn2)cc1Nc1nc(C)ccc1S(C)(=O)=O` [Example 184], the IC50 was found to be 0.263 µM.
Same read-out and setting: the result for `CNC(=O)c1nnc(Nc2cnc(C3CC3)cn2)cc1Nc1ncccc1S(C)(=O)=O` [Example 37] reads 0.026 µM; that for `CNC(=O)c1nnc(Nc2ccc(C(C)(C)NC(=O)OC(C)C)cn2)cc1Nc1ncccc1S(C)(=O)=O` [Example 78], 0.04 µM.
Take `CNC(=O)c1nnc(Nc2ccc(OC)nn2)cc1Nc1ncccc1S(C)(=O)=O` [Example 209, 6-((6-methoxypyridazin-3-yl)amino)-N-methyl-4-((3-(methylsulfonyl)pyridin-2-yl)amino)pyridazine-3-carboxamide]: for the setting “Homo sapiens”, the IC50 amounted to 0.056 µM.
For the compound `CNC(=O)c1nnc(Nc2cc(C)nc(C)n2)cc1Nc1nc(C)ccc1S(C)(=O)=O` [Example 185], the IC50 was determined as 1.73 µM.
In the case of `CNC(=O)c1nnc(Nc2ccc(F)nc2)cc1Nc1ncccc1S(C)(=O)=O` [Example 16], the IC50 was found to be 1.43 µM.
For `CNC(=O)c1nnc(Nc2ccc(C(C)(C)N)cn2)cc1Nc1ncccc1S(C)(=O)=O` [Example 24], the IC50 turned out to be 0.009 µM.
Still for that read-out and setting: the result for `CNC(=O)c1nnc(Nc2ccc(OCCOC)nn2)cc1Nc1ncccc1S(C)(=O)=O` [Example 64] reads 0.079 µM; that for `CCC(=O)Nc1cc(Nc2nc(C)ccc2S(C)(=O)=O)c(C(=O)NC)nn1` [Example 186], 0.132 µM.
As for `[2H]C([2H])([2H])NC(=O)c1nnc(Nc2ccc(C(C)(C)O)cc2)cc1Nc1nc(C2CC2)ccc1S(C)(=O)=O` [Example 207, 4-((6-cyclopropyl-3-(methylsulfonyl)pyridin-2-yl)amino)-6-((4-(2-hydroxypropan-2-yl)phenyl)amino)-N-(methyl-d3)pyridazine-3-carboxamide], where the note is “Homo sapiens”, the IC50 stood at 0.229 µM.
In the case of `CNC(=O)c1nnc(Nc2ccc(C3(C#N)CC3)cn2)cc1Nc1ncccc1S(C)(=O)=O` [Example 33], the half-inhibitory concentration (IC50) turned out to be 0.018 µM.
`CNC(=O)c1nnc(Nc2ccc(C(C)(C)O)cn2)cc1Nc1nc(OC)ccc1S(C)(=O)=O` [Example 201]: the half-inhibitory concentration (IC50) amounted to 0.024 µM.
Turning to `CNC(=O)c1nnc(NC(=O)OC(C)C)cc1Nc1ncccc1S(C)(=O)=O` [Example 134], the IC50 came out at 0.296 µM.
As for `CNC(=O)c1nnc(Nc2ccc(-n3cc(Cl)ccc3=O)cn2)cc1Nc1ncccc1S(C)(=O)=O` [Example 89], the IC50 worked out at 0.032 µM.
`CNC(=O)c1nnc(NC(=O)[C@H]2C[C@@H]2C)cc1Nc1ncccc1S(C)(=O)=O` [Example 49]: the IC50 turned out to be 0.058 µM.
Consider `[2H]C([2H])([2H])NC(=O)c1nnc(NC(=O)CC)cc1Nc1nc(OC)ccc1S(C)(=O)=O` [Example 199, 4-((6-methoxy-3-(methylsulfonyl)pyridin-2-yl)amino)-N-(methyl-d3)-6-propionamidopyridazine-3-carboxamide], for which, for the setting “Homo sapiens”, the IC50 is 1.03 µM.
Same read-out and setting: for `[2H]C([2H])([2H])NC(=O)c1nnc(Nc2ccc(CNC(C)=O)cn2)cc1Nc1ncccc1S(C)(=O)=O` [Example 69, 6-((5-(acetamidomethyl)pyridin-2-yl)amino)-N-(methyl-d3)-4-((3-(methylsulfonyl)pyridin-2-yl)amino)pyridazine-3-carboxamide] the value was 0.012 µM.
Regarding `Cn1ccc(Nc2cc(Nc3ncccc3S(C)(=O)=O)c(C(N)=O)nn2)n1` [compound 214], the IC50 is 0.046 µM.
Consider `CCOc1cc(Nc2cc(Nc3ncccc3S(C)(=O)=O)c(C(=O)NC)nn2)ncc1C(C)(C)O` [Example 149], for which the IC50 was 0.141 µM.
As for `CNC(=O)c1nnc(Nc2ccn(C)n2)cc1Nc1ncccc1[S+](C)[O-]` (centres unmarked) [Example 256], the IC50 is 0.744 µM.
Take `CNC(=O)c1nnc(Nc2cccc(-c3ccccc3)n2)cc1Nc1ncccc1S(C)(=O)=O` [Example 117]: the IC50 was found to be 0.334 µM.
As for `CNC(=O)c1nnc(Nc2cc(C(C)(C)O)c(F)cn2)cc1Nc1ncccc1S(C)(=O)=O` [Example 22], the IC50 was 0.031 µM.
Same read-out and setting: for `CNC(=O)c1nnc(Nc2ccc(N3CCOCC3=O)cn2)cc1Nc1ncccc1S(C)(=O)=O` [Example 97] the value was 0.013 µM; for `CNC(=O)c1nnc(NC(=O)[C@@H]2C[C@@H]2F)cc1Nc1ncccc1S(C)(=O)=O` [Example 44], 0.014 µM.
Regarding `CNC(=O)c1nnc(NC(=O)C=C2CCCCC2)cc1Nc1ncccc1S(C)(=O)=O` [Example 128], the IC50 is 0.061 µM.
In the case of `CNC(=O)c1nnc(Nc2cc(C)nc(C)n2)cc1Nc1ncccc1S(C)(=O)=O` [Example 98], the IC50 amounted to 0.049 µM.
On the same count and under the same terms, the result for `CNC(=O)c1cnc(NC(=O)C2CCC2)cc1Nc1ncccc1S(C)(=O)=O` [Example 239] reads 0.288 µM; that for `CNC(=O)c1nnc(NC(=O)CC(C)C)cc1Nc1ncccc1S(C)(=O)=O` [Example 129], 0.08 µM.
Consider `CNC(=O)c1nnc(Nc2ccc(OC3CCOC3)nn2)cc1Nc1ncccc1S(C)(=O)=O` (centres unmarked) [Example 63], for which the IC50 was found to be 0.013 µM.
With `CNC(=O)c1nnc(Nc2ccc(C(C)(C)N3CCCC3=O)cn2)cc1Nc1ncccc1S(C)(=O)=O` [Example 76], the IC50 is 0.02 µM.
As for `CNC(=O)c1nnc(Nc2cc(COC)ncn2)cc1Nc1ncccc1S(C)(=O)=O` [Example 84], the IC50 came to 0.042 µM.
With `CNC(=O)c1cnc(NC(=O)C2CC2)cc1Nc1ncccc1S(C)(=O)=O` [Example 236], the IC50 is 0.013 µM.
Take `CNC(=O)c1nnc(Nc2ccc(N3CCOCC3=O)cn2)cc1Nc1nc(C)ccc1S(C)(=O)=O` [Example 196]: the IC50 was 0.012 µM.
As to `CNC(=O)c1nnc(Nc2ccc(OCC(C)(C)O)cn2)cc1Nc1ncccc1S(C)(=O)=O` [Example 77], the IC50 was determined as 0.398 µM.
As to `CNC(=O)c1nnc(Nc2ccc(-n3cccc(C(F)(F)F)c3=O)cn2)cc1Nc1nc(C)ccc1S(C)(=O)=O` [Example 190], the IC50 was 0.061 µM.
As for `CNC(=O)c1nnc(Nc2ccc(C(F)(F)F)nn2)cc1Nc1ncccc1S(C)(=O)=O` [Example 19], the IC50 was 0.044 µM.
With `CNC(=O)c1nnc(Nc2ccc(C(C)(C)N3CCOC3=O)cn2)cc1Nc1ncccc1S(C)(=O)=O` [Example 75], the IC50 stood at 0.018 µM.
`CNC(=O)c1cnc(NC(=O)OC)cc1Nc1ncccc1S(C)(=O)=O` [Example 237]: the IC50 is 1.08 µM.
Same read-out and setting: for `CNC(=O)c1nnc(Nc2cc(N3CCC3)ncn2)cc1Nc1ncccc1S(C)(=O)=O` [Example 35] the value was 0.09 µM; for `CNC(=O)c1cnc(Nc2ccc(C(F)(F)F)cn2)cc1Nc1ncccc1S(C)(=O)=O` [Example 219], 0.024 µM; for `CCOC(=O)N1CCN(c2ccc(Nc3cc(Nc4ncccc4S(C)(=O)=O)c(C(=O)NC)nn3)nc2)CC1` [Example 107], 0.013 µM.
As for `[2H]C([2H])([2H])NC(=O)c1nnc(NC(C)=O)cc1Nc1ncccc1S(C)(=O)=O` [Example 163, 6-acetamido-N-trideuteromethyl-4-((3-(methylsulfonyl)pyridin-2-yl)amino)pyridazine-3-carboxamide], where the note is “Homo sapiens”, the IC50 was found to be 0.095 µM.
Consider `CNC(=O)c1nnc(Nc2cc(Cl)c(C(C)(C)O)cn2)cc1Nc1nc(C)ccc1S(C)(=O)=O` [Example 194], for which the IC50 worked out at 0.035 µM.
With `CNC(=O)c1nnc(Nc2cc3ccc(C(C)(C)O)cc3cn2)cc1Nc1ncccc1S(C)(=O)=O` [Example 30], the IC50 is 0.057 µM.
As to `CNC(=O)c1nnc(Nc2ccc(OC)nn2)cc1Nc1ncccc1S(C)(=O)=O` [Example 28], the IC50 turned out to be 0.028 µM.
Consider `[2H]C([2H])([2H])NC(=O)c1nnc(Nc2ccc(OC)nn2)cc1Nc1nc(C)ccc1S(C)(=O)=O` [Example 183, 6-((6-methoxypyridazin-3-yl)amino)-N-(methyl-d3)-4-((6-methyl-3-(methylsulfonyl)pyridin-2-yl)amino)pyridazine-3-carboxamide], for which the IC50 (Homo sapiens) stood at 0.105 µM.
Take `CNC(=O)c1nnc(Nc2cc(C3CC3)ncn2)cc1Nc1ncccc1S(C)(=O)=O` [Example 14]: the IC50 was determined as 0.011 µM.
With `CNC(=O)c1nnc(Nc2ccc(-c3c(F)cccc3F)nn2)cc1Nc1ncccc1S(C)(=O)=O` [Example 104], the IC50 was 0.046 µM.
Still for that read-out and setting: the result for `CNC(=O)c1nnc(Nc2ccnc(C(F)(F)F)n2)cc1Nc1ncccc1S(C)(=O)=O` [Example 138] reads 0.447 µM; that for `CNC(=O)c1nnc(NC(=O)C2CC23CC3)cc1Nc1ncccc1S(C)(=O)=O` (centres unmarked) [Example 47], 0.048 µM.
